SMILES strings stand for the structures.

Consider seven compounds from ChEMBL document CHEMBL5465560, “Selectivity Literature for EUbOPEN Chemogenomic Library” (2024).

Assay [1] deals with T1, Serine/threonine-protein kinase 17B (Homo sapiens) (UniProt O94768).
T1 sequence (whole entry): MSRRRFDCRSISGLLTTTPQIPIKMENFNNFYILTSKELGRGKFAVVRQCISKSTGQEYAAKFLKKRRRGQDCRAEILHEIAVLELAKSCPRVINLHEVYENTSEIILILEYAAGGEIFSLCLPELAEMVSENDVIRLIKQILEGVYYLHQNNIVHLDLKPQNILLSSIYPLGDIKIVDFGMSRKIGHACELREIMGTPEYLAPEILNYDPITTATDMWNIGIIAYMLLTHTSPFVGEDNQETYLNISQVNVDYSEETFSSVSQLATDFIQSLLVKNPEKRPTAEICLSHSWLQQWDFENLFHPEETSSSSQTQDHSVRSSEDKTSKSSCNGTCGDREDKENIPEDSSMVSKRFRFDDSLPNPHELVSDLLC
Description: Selectivity interaction (KinomeScan (DiscoverX)) EUB0000666a STK17B. As to conditions: at 10 µM.

Assay [2] addresses Dual specificity protein kinase CLK2 (Homo sapiens, UniProt P49760). Description: Selectivity interaction (Kinase panel (Invitrogen)) EUB0000639a CLK2. As to conditions: at 200 nM.
Assay [3] addresses T2, Serine/threonine-protein kinase Sgk3 (Homo sapiens) (UniProt Q96BR1).
T2 sequence (whole entry): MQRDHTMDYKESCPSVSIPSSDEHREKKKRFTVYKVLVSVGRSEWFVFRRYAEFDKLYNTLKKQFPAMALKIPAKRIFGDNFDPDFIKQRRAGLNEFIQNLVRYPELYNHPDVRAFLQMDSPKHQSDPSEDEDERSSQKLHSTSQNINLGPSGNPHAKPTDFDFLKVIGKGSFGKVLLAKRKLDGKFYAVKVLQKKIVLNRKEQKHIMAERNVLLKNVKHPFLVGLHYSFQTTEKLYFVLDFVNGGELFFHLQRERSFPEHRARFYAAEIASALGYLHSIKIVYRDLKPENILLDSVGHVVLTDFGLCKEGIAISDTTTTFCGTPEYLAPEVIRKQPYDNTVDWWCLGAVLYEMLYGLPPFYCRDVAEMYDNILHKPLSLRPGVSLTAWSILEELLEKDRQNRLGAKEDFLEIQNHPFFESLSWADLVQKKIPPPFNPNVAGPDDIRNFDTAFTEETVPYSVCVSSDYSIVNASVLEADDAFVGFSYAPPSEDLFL
Description: Selectivity interaction (ActivX KiNativ screen (kinase selectivity in THP-1 cell lysates)) EUB0000639a SGK3. It counts as subcellular. To be noted: lysate.

Assay [4] concerns the target Cyclin-dependent kinase 8 (Homo sapiens, UniProt P49336). As to conditions: at 10 µM.
For assay [5], the target named is T3, Tyrosine-protein kinase Tec (Homo sapiens) (UniProt P42680).
T3 sequence (whole entry): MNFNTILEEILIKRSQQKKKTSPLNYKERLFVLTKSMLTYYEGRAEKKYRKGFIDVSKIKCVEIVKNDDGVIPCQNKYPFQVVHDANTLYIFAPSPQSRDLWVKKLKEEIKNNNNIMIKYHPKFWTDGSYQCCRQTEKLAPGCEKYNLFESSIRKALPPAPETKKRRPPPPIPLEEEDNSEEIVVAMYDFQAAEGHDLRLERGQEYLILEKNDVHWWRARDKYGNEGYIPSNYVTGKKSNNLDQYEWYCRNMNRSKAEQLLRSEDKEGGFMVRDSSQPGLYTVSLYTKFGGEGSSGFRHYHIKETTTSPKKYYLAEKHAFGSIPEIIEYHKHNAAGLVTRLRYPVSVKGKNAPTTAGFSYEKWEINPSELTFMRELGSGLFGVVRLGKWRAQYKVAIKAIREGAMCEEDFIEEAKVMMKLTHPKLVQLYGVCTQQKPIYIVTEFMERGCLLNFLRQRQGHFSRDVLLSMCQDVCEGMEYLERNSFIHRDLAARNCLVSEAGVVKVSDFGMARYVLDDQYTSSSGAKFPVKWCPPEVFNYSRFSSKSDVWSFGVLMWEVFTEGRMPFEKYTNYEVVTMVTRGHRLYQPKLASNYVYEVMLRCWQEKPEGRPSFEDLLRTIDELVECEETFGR
As to conditions: at 10 µM.

The target of assay [6] is T4, Inhibitor of nuclear factor kappa-B kinase subunit alpha (Homo sapiens) (UniProt O15111).
T4 sequence (whole entry): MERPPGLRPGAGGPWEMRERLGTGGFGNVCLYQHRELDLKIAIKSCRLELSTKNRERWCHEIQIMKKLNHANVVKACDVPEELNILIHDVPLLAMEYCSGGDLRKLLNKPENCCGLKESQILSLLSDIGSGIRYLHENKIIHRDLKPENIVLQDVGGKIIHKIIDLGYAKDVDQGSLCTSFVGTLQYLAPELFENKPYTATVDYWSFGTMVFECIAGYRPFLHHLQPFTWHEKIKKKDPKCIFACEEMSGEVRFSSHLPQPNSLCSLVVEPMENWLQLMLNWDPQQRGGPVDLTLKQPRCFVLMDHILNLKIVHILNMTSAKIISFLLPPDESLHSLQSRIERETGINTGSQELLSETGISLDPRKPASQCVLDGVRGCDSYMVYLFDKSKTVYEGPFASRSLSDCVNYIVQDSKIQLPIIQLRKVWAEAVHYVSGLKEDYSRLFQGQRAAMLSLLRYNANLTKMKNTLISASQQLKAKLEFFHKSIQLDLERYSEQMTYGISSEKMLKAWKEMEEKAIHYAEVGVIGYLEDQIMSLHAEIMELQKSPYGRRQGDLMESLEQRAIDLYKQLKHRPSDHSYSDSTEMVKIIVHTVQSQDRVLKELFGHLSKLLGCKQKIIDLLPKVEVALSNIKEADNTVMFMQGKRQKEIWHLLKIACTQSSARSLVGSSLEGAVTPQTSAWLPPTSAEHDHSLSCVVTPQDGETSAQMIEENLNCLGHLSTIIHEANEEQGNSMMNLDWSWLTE
Description: Selectivity interaction (Millipore kinase profiler) EUB0000124b CHUK. To be noted: at 10 µM.

For assay [7], the target named is Serine/threonine-protein kinase 16 (Homo sapiens, UniProt O75716). Description: Selectivity interaction (KinomeScan (DiscoverX)) EUB0000695a STK16. To be noted: at 100 nM.
Assay [8] addresses Tyrosine-protein kinase SYK (Homo sapiens, UniProt P43405). As to the kind of experiment: Selectivity interaction (KinomeScan (DiscoverX)) EUB0000045b SYK.
The target of assay [9] is Histone-lysine N-methyltransferase, H3 lysine-36 specific (Homo sapiens) (UniProt Q96L73). As to the kind of experiment: Selectivity interaction (Methyltransferase screen (radiometric assays, panel of 8 PRMTs, 21 protein lysine methyltransferases, 3 DNA methyltransferases, and one RNA methyltransferase)) EUB0000272b NSD1.
Sequence of Histone-lysine N-methyltransferase, H3 lysine-36 specific (Homo sapiens) (Q96L73 whole entry): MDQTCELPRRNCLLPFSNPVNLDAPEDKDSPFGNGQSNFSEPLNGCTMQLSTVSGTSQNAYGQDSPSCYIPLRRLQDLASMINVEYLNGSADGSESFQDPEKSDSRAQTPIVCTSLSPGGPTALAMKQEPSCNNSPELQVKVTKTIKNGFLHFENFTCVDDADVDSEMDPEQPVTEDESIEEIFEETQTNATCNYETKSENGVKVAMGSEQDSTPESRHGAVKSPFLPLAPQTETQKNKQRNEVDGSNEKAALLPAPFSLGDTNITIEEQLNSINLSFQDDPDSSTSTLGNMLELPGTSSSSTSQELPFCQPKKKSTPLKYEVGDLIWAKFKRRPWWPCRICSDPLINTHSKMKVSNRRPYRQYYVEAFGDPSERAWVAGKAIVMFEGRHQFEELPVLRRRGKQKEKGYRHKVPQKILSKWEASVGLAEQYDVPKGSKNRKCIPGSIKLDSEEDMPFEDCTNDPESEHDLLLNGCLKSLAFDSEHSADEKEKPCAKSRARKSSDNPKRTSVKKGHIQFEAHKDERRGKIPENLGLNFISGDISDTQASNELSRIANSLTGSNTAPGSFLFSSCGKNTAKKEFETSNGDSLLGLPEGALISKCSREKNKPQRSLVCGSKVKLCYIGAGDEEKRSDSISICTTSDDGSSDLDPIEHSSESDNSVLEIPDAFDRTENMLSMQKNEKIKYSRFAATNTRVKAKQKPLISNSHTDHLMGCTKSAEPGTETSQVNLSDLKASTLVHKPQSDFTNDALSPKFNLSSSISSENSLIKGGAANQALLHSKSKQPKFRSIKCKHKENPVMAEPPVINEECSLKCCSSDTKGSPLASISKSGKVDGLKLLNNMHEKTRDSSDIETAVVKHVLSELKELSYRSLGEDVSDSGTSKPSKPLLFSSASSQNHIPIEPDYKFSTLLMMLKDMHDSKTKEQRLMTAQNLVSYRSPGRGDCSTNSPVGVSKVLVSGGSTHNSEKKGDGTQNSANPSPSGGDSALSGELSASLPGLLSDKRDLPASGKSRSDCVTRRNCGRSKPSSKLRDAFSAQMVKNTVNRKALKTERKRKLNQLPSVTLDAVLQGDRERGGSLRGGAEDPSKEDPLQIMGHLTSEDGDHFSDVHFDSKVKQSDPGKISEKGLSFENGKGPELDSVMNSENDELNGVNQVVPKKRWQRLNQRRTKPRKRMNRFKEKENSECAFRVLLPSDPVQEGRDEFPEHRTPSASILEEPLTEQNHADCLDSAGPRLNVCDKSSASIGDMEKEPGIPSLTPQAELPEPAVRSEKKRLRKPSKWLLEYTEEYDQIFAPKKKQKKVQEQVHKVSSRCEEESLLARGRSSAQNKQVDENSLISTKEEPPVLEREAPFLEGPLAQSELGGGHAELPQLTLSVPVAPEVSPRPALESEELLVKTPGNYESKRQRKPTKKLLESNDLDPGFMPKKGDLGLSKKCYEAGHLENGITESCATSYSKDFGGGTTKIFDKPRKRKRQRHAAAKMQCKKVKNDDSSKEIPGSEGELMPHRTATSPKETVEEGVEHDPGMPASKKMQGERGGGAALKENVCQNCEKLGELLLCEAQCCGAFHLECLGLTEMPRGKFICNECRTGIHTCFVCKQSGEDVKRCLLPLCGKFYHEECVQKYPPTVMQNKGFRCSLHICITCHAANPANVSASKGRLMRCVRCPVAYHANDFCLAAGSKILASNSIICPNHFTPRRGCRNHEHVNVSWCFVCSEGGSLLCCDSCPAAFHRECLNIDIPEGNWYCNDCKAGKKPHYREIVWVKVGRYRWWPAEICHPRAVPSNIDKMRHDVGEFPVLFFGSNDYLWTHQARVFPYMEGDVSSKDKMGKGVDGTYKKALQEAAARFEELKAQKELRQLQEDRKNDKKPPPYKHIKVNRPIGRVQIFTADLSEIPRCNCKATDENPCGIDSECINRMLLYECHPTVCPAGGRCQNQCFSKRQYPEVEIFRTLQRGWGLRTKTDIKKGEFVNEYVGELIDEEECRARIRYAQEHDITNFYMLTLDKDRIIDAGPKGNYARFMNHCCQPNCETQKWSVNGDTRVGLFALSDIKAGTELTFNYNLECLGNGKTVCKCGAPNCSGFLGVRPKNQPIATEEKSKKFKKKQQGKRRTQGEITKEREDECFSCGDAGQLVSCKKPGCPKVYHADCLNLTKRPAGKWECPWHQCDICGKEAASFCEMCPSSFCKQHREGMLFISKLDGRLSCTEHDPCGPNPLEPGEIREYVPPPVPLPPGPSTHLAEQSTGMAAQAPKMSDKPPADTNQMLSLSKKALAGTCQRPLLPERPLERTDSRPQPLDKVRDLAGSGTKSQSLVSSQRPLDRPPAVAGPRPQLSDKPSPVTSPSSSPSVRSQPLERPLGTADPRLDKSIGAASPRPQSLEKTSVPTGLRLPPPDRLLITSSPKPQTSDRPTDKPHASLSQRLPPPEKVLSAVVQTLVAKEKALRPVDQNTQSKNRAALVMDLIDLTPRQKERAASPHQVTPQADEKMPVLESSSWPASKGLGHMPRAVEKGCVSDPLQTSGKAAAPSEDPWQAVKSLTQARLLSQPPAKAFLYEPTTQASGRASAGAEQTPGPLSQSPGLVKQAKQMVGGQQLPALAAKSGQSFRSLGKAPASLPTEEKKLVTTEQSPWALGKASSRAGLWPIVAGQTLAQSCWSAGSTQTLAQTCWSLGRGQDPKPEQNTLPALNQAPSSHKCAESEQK

Sequence of Serine/threonine-protein kinase 16 (O75716 whole entry): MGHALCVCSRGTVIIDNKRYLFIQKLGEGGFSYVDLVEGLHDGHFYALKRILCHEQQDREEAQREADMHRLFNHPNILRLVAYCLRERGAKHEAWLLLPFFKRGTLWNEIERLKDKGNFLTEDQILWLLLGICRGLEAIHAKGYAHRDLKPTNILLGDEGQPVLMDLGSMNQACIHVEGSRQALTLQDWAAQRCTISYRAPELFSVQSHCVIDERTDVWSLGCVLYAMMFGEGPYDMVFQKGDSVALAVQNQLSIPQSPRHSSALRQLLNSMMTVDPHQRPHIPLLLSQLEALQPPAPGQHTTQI
Sequence of Cyclin-dependent kinase 8 (P49336 whole entry): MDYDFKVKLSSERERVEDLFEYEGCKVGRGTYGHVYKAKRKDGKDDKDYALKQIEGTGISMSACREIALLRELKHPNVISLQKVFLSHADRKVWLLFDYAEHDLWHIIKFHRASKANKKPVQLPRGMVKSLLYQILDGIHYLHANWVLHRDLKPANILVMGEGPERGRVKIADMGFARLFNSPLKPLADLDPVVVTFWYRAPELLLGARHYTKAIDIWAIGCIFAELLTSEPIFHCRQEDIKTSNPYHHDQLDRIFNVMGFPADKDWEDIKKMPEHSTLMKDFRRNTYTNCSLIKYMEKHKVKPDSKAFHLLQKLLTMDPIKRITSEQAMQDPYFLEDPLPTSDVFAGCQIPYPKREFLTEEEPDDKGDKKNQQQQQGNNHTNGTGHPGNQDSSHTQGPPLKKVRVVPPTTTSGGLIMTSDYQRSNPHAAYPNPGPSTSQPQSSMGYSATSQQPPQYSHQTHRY
Sequence of Dual specificity protein kinase CLK2 (P49760 whole entry, looked up): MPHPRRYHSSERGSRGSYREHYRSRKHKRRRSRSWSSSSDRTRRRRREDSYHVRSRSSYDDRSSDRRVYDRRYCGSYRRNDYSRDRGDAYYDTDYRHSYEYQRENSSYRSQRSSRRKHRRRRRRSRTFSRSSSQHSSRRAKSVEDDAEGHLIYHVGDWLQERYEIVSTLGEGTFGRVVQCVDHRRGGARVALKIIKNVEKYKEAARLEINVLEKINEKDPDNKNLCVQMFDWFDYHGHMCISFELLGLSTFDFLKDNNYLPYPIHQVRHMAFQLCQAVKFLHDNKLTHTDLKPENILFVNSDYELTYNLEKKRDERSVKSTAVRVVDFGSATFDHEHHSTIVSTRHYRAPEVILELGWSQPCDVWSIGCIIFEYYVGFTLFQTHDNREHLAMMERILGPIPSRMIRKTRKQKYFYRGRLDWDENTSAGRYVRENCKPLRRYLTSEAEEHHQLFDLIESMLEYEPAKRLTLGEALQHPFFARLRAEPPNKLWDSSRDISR

As for `O=C(NOC[C@H](O)CO)c1ccc(F)c(F)c1Nc1ccc(I)cc1F`, the % of control in assay [1] is 100%.

Turning to `CC[C@@H]1[C@H](F)C(=O)N[C@@H]1COc1nccc2cc(C(N)=O)c(OC)cc12` [ZIMLOVISERTIB], the % of inhibition worked out at 14.8% in assay [2]; 51.3% in assay [3] (at 0.01 µM); 6.7% in assay [3] (at 0.04 µM); 7.4% in assay [3] (at 0.2 µM); 18.9% in assay [3] (at 1 µM); 25.3% in assay [3] (at 5 µM).

As to `CCN(CC)CCCCNc1ncc2cc(-c3cc(OC)cc(OC)c3)c(NC(=O)NC(C)(C)C)nc2n1`, the % of control in assay [4] and in assay [5] was 100% in each case.

`CC(=O)Nc1cccc(-n2c(=O)n(C3CC3)c(=O)c3c(Nc4ccc(I)cc4F)n(C)c(=O)c(C)c32)c1` registered a % of control in assay [6] of 123%.

In turn, `Cc1cc(F)c(C(=O)Nc2cccc(-c3nncn3C(C)C)n2)cc1-n1cnc(C2CC2)c1` displayed a % of control in [7] of 83%.

On to `C=CC(=O)Nc1cc(-n2c(=O)ccc3cnc4ccc(-c5ccc(NS(C)(=O)=O)cc5)cc4c32)ccc1C`, for which the % of control is 100% in assay [8] (at 1 µM) and 96% in assay [8] (at 10 µM).

As for `Cc1cc(C)cc([C@H]2c3cc(C)ccc3NC(=O)CN2C(=O)c2ccc(Br)s2)c1`, the % of activity in assay [9] (at 1 µM) was determined as 100%; in assay [9] (at 10 µM), 102%.
